Test: Biological test of toxicity (lethal dose)
Assay type: in vivo
Conditions: biologischer Test
Protocol: Weiterhin ließ sich nachweisen, daß in dem Präparat Ukrain (hier erfolgte die Umsetzung der Alkaloide von Chelidonium majus L. mit Thiophosphorsäuretriaziridid, gen. Thio-TEPA) keine freien Äthylengruppen des Thio-TEPA vorliegen. Dieser Nachweis wurde erbracht: • 1. durch eine chemische Analyse und • 2. dadurch, daß beim biologischen Test die Dosis letalis für Thio-TEPA bei 1 mg/kg Körpergewicht liegt, für das Präparat jedoch eine Dosis von 250 mg/kg Körpergewicht nicht toxisch ist.

**Q.** For `S=P(N1CC1)(N1CC1)N1CC1` [Thio-TEPA, Thiophosphorsäuretriaziridid], which Dosis letalis is on record?
**A.** The Dosis letalis was 1 mg/kg Körpergewicht.

Source: patent EP0083600B1, “Use of alkaloid derivatives for the manufacture of a medicament for the strengthening of the immune system and for the treatment of viral, bacterial and fungal infections” (Nowicky, Wassyl, priority 1981, dated 1983)
